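Cultured in 96-well plates, cells were exposed to test compound for 48 hours across five concentrations. At the GI50, growth is halved.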 Calls of active or inactive are those of the source. Rule as the data show it: active = GI50 up to about 1.1 µM and inactive = higher.
Columns and labels:
Test in all cases: NCI anticancer screen, dose series, 48 h
SNB-75 = test system: SNB-75
DMS-114 = test system: DMS-114
HL-60 = test system: HL-60
SK-MEL-5 = test system: SK-MEL-5
OVCAR-4 = test system: OVCAR-4
RPMI-8226 = test system: RPMI-8226
OVCAR-3 = test system: OVCAR-3
COLO 205 = test system: COLO 205
HCC 2998 = test system: HCC 2998
UACC-62 = test system: UACC-62
SR = test system: SR
UO-31 = test system: UO-31
SK-OV-3 = test system: SK-OV-3
NCI-H23 = test system: NCI-H23
K562 = test system: K562
RXF 393 = test system: RXF 393
TK-10 = test system: TK-10
SK-MEL-2 = test system: SK-MEL-2
SK-MEL-28 = test system: SK-MEL-28
EKVX = test system: EKVX
OVCAR-5 = test system: OVCAR-5
HCT-116 = test system: HCT-116
ACHN = test system: ACHN
HOP-62 = test system: HOP-62
DLD-1 = test system: DLD-1
XF498 = test system: XF498
CCRF-CEM = test system: CCRF-CEM
A549 = test system: A549
SW-620 = test system: SW-620
LOX IMVI = test system: LOX IMVI
DMS-273 = test system: DMS-273
SN12C = test system: SN12C
SNB-78 = test system: SNB-78
HCT-15 = test system: HCT-15
KM12 = test system: KM12
OVCAR-8 = test system: OVCAR-8
M19-MEL = test system: M19-MEL
NCI-H226 = test system: NCI-H226
IGROV-1 = test system: IGROV-1
MOLT-4 = test system: MOLT-4
Malme-3M = test system: Malme-3M
SNB-19 = test system: SNB-19
LXFL 529 = test system: LXFL 529
SF-268 = test system: SF-268
NCI-H522 = test system: NCI-H522
M14 = test system: M14
786-0 = test system: 786-0
UACC-257 = test system: UACC-257
SF-295 = test system: SF-295
RXF 631 = test system: RXF 631
SF-539 = test system: SF-539
U-251 = test system: U-251
KM-20L2 = test system: KM-20L2
NCI-H460 = test system: NCI-H460
HT-29 = test system: HT-29
A498 = test system: A498
HOP-92 = test system: HOP-92
HOP-18 = test system: HOP-18
CAKI-1 = test system: CAKI-1

`COC(=O)C1(C)CCc2c(OC)ccc(OC)c2C1=O` (configuration not stated) was tested, and the GI50 (SNB-75) was 29.8 µM (inactive), the GI50 (DMS-114) was > 100 µM (inactive) and the GI50 (HL-60) was > 100 µM (inactive). For the same compound, the GI50 (SK-MEL-5) was > 100 µM (inactive), the GI50 (OVCAR-4) was > 100 µM (inactive) and the GI50 (RPMI-8226) was > 100 µM (inactive). The GI50 (OVCAR-3) was > 100 µM (inactive), the GI50 (COLO 205) was > 100 µM (inactive) and the GI50 (HCC 2998) was > 100 µM (inactive). For the same compound, the GI50 (UACC-62) was > 100 µM (inactive), the GI50 (SR) was > 100 µM (inactive) and the GI50 (UO-31) was 76.2 µM (inactive). The GI50 (SK-OV-3) was > 100 µM (inactive), the GI50 (NCI-H23) was > 100 µM (inactive) and the GI50 (K562) was > 100 µM (inactive). The GI50 (RXF 393) was > 100 µM (inactive), the GI50 (TK-10) was > 100 µM (inactive) and the GI50 (SK-MEL-2) was > 100 µM (inactive). For the same compound, the GI50 (SK-MEL-28) was > 100 µM (inactive), the GI50 (EKVX) was > 100 µM (inactive) and the GI50 (OVCAR-5) was > 100 µM (inactive). For the same compound, the GI50 (HCT-116) was > 100 µM (inactive), the GI50 (ACHN) was > 100 µM (inactive) and the GI50 (HOP-62) was > 100 µM (inactive). For the same compound, the GI50 (DLD-1) was > 100 µM (inactive), the GI50 (XF498) was > 100 µM (inactive) and the GI50 (CCRF-CEM) was > 100 µM (inactive). For the same compound, the GI50 (A549) was > 100 µM (inactive), the GI50 (SW-620) was > 100 µM (inactive) and the GI50 (LOX IMVI) was > 100 µM (inactive). For the same compound, the GI50 (DMS-273) was > 100 µM (inactive), the GI50 (SN12C) was > 100 µM (inactive) and the GI50 (SNB-78) was > 100 µM (inactive). The GI50 (HCT-15) was over 100 µM, the GI50 (KM12) was > 100 µM (inactive) and the GI50 (OVCAR-8) was > 100 µM (inactive). For the same compound, the GI50 (M19-MEL) was > 100 µM (inactive), the GI50 (NCI-H226) was > 100 µM (inactive) and the GI50 (IGROV-1) was > 100 µM (inactive). The GI50 (MOLT-4) was > 100 µM (inactive), the GI50 (Malme-3M) was > 100 µM (inactive) and the GI50 (SNB-19) was > 100 µM (inactive). The GI50 (LXFL 529) was > 100 µM (inactive), the GI50 (SF-268) was > 100 µM (inactive) and the GI50 (NCI-H522) was > 100 µM (inactive). The GI50 (M14) was > 100 µM (inactive), the GI50 (786-0) was > 100 µM (inactive) and the GI50 (UACC-257) was > 100 µM (inactive). For the same compound, the GI50 (SF-295) was > 100 µM (inactive), the GI50 (RXF 631) was > 100 µM (inactive) and the GI50 (SF-539) was > 100 µM (inactive). For the same compound, the GI50 (U-251) was > 100 µM (inactive).
For `NC(=O)NC12CC3CC(CC(F)(C3)C1)C2`, the GI50 (SNB-75) was 87.9 µM (inactive), the GI50 (DMS-114) was > 100 µM (inactive) and the GI50 (HL-60) was > 100 µM (inactive). The GI50 (KM-20L2) was > 100 µM (inactive), the GI50 (RPMI-8226) was > 100 µM (inactive) and the GI50 (OVCAR-3) was > 100 µM (inactive). For the same compound, the GI50 (COLO 205) was > 100 µM (inactive), the GI50 (HCC 2998) was > 100 µM (inactive) and the GI50 (NCI-H460) was > 100 µM (inactive). For the same compound, the GI50 (HT-29) was > 100 µM (inactive), the GI50 (UACC-62) was > 100 µM (inactive) and the GI50 (UO-31) was > 100 µM (inactive). For the same compound, the GI50 (SK-OV-3) was > 100 µM (inactive), the GI50 (NCI-H23) was > 100 µM (inactive) and the GI50 (K562) was > 100 µM (inactive). The GI50 (RXF 393) was > 100 µM (inactive), the GI50 (TK-10) was > 100 µM (inactive) and the GI50 (SK-MEL-2) was > 100 µM (inactive). For the same compound, the GI50 (SK-MEL-28) was > 100 µM (inactive), the GI50 (EKVX) was > 100 µM (inactive) and the GI50 (OVCAR-5) was > 100 µM (inactive). For the same compound, the GI50 (HCT-116) was > 100 µM (inactive), the GI50 (ACHN) was > 100 µM (inactive) and the GI50 (HOP-62) was > 100 µM (inactive). The GI50 (DLD-1) was > 100 µM (inactive), the GI50 (A498) was > 100 µM (inactive) and the GI50 (XF498) was > 100 µM (inactive). For the same compound, the GI50 (CCRF-CEM) was > 100 µM (inactive), the GI50 (A549) was > 100 µM (inactive) and the GI50 (SW-620) was > 100 µM (inactive). The GI50 (LOX IMVI) was > 100 µM (inactive), the GI50 (DMS-273) was > 100 µM (inactive) and the GI50 (SNB-78) was > 100 µM (inactive). The GI50 (KM12) was > 100 µM (inactive), the GI50 (OVCAR-8) was > 100 µM (inactive) and the GI50 (M19-MEL) was > 100 µM (inactive). The GI50 (IGROV-1) was > 100 µM (inactive), the GI50 (MOLT-4) was > 100 µM (inactive) and the GI50 (Malme-3M) was > 100 µM (inactive). The GI50 (SNB-19) was > 100 µM (inactive), the GI50 (LXFL 529) was > 100 µM (inactive) and the GI50 (NCI-H522) was > 100 µM (inactive). For the same compound, the GI50 (M14) was > 100 µM (inactive), the GI50 (786-0) was > 100 µM (inactive) and the GI50 (UACC-257) was > 100 µM (inactive). For the same compound, the GI50 (HOP-92) was > 100 µM (inactive), the GI50 (RXF 631) was > 100 µM (inactive) and the GI50 (SF-539) was > 100 µM (inactive). For the same compound, the GI50 (U-251) was > 100 µM (inactive).
`O=C(O)CCC(N/C=C1/N=C(c2ccccc2)OC1=O)C(=O)O` (configuration not stated) was tested, and the GI50 (SNB-75) was > 100 µM (inactive), the GI50 (DMS-114) was > 100 µM (inactive) and the GI50 (HL-60) was 10 µM (inactive). The GI50 (SK-MEL-5) was > 100 µM (inactive), the GI50 (KM-20L2) was > 100 µM (inactive) and the GI50 (OVCAR-4) was > 100 µM (inactive). For the same compound, the GI50 (RPMI-8226) was > 100 µM (inactive), the GI50 (OVCAR-3) was > 100 µM (inactive) and the GI50 (COLO 205) was > 100 µM (inactive). For the same compound, the GI50 (HCC 2998) was > 100 µM (inactive), the GI50 (NCI-H460) was > 100 µM (inactive) and the GI50 (HT-29) was > 100 µM (inactive). The GI50 (UACC-62) was > 100 µM (inactive), the GI50 (SR) was > 100 µM (inactive) and the GI50 (UO-31) was > 100 µM (inactive). The GI50 (SK-OV-3) was > 100 µM (inactive), the GI50 (NCI-H23) was > 100 µM (inactive) and the GI50 (K562) was > 100 µM (inactive). The GI50 (RXF 393) was > 100 µM (inactive), the GI50 (TK-10) was > 100 µM (inactive) and the GI50 (SK-MEL-2) was > 100 µM (inactive). The GI50 (SK-MEL-28) was > 100 µM (inactive), the GI50 (EKVX) was > 100 µM (inactive) and the GI50 (OVCAR-5) was > 100 µM (inactive). For the same compound, the GI50 (HCT-116) was > 100 µM (inactive), the GI50 (ACHN) was > 100 µM (inactive) and the GI50 (HOP-18) was 36.1 µM (inactive). The GI50 (HOP-62) was > 100 µM (inactive), the GI50 (DLD-1) was > 100 µM (inactive) and the GI50 (A498) was > 100 µM (inactive). The GI50 (CCRF-CEM) was > 100 µM (inactive), the GI50 (A549) was > 100 µM (inactive) and the GI50 (CAKI-1) was > 100 µM (inactive). The GI50 (SW-620) was > 100 µM (inactive), the GI50 (DMS-273) was > 100 µM (inactive) and the GI50 (SN12C) was > 100 µM (inactive). For the same compound, the GI50 (SNB-78) was > 100 µM (inactive), the GI50 (HCT-15) was over 100 µM and the GI50 (KM12) was > 100 µM (inactive). For the same compound, the GI50 (OVCAR-8) was > 100 µM (inactive), the GI50 (M19-MEL) was > 100 µM (inactive) and the GI50 (NCI-H226) was > 100 µM (inactive). The GI50 (IGROV-1) was > 100 µM (inactive), the GI50 (MOLT-4) was > 100 µM (inactive) and the GI50 (Malme-3M) was > 100 µM (inactive). The GI50 (SNB-19) was > 100 µM (inactive), the GI50 (LXFL 529) was > 100 µM (inactive) and the GI50 (SF-268) was > 100 µM (inactive). For the same compound, the GI50 (NCI-H522) was > 100 µM (inactive), the GI50 (M14) was > 100 µM (inactive) and the GI50 (786-0) was > 100 µM (inactive). For the same compound, the GI50 (UACC-257) was > 100 µM (inactive), the GI50 (SF-295) was > 100 µM (inactive) and the GI50 (RXF 631) was > 100 µM (inactive). For the same compound, the GI50 (SF-539) was > 100 µM (inactive) and the GI50 (U-251) was > 100 µM (inactive).
